According to article PMC8351594, “Design of Novel Amphipathic α-Helical Antimicrobial Peptides with No Toxicity as Therapeutics against the Antibiotic-Resistant Gram-Negative Bacterial Pathogen, Acinetobacter Baumannii” (Journal of medicinal chemistry and drug design, 2019):
Values after ≈ are worked out from the molar mass of the structure shown. Square brackets hold non-standard residues; d marks the D form. Peptide text beside a SMILES is read from it. Dab = NCC[C@H](N)C(=O)O; Dap = NC[C@H](N)C(=O)O

Columns and labels:
human red blood cells [1] = test: Hemolytic activity (HC50) determination; details: 1% human erythrocytes in PBS pH 7.4, 37°C, 18 h, 12 concentrations up to 1000 μg/mL, hemoglobin release at 570 nm, average of 3 replicates; estimated by extrapolation when 50% hemolysis not observed at 1000 μg/mL
Procedure: (§3) Peptide samples (concentrations determined by amino acid analysis) were added to 1% human erythrocytes in phosphate-buffered saline (100 mM NaCl, 80 mM Na2HPO4, 20 mM NaH2PO4, pH 7.4) and the reaction mixtures were incubated at 37°C for 18h in microtiter plates. Two-fold serial dilutions of the peptide samples were carried out. This determination was made by withdrawing aliquots from the hemolysis assays and removing unlysed erythrocytes by centrifugation (800 × g). Hemoglobin release was determined spectrophotometrically at 570 nm. The control for 100% hemolysis was a sample of erythrocytes treated with water. The control for no release of hemoglobin was a sample of 1% erythrocytes without any peptide added. […] The hemolytic activity HC50 is the peptide concentration that causes 50% hemolysis of erythrocytes after 18h. HC50 was determined from a plot of percent lysis versus peptide concentration (μM) using 12 different concentrations up to 1000 micrograms per ml for 18h at 37°C. The average of 3 replicates is used with an average variance of less than 4%. Fresh human blood was obtained from Vitalant, Denver, CO, USA.
(§4) In order to determine that we were able to eliminate hemolysis of human red blood cells, we used the most rigorous test of hemolytic activity (18h at 37°C and up to 1000 μg/mL or >350 μM of AMP). […] The HC50 value is estimated when 50% hemolysis is not observed at 1000 μg/mL by extrapolation of the plots observed in figure 3.

[2] = tested on: Acinetobacter baumannii MB9951; details: Mueller-Hinton medium, 37°C, 24 h, inoculum 5 × 10^5 CFU/mL; MIC based on three sets of determinations
Procedure: (§1) The A. baumannii strains used in this study consisted of seven strains resistant to Polymyxin B and Colistin (antibiotics of last resort) obtained from MERCK (M89941, M89949, M89951, M89952, M89953, M89955 and M89963). The MICGM in this case is the geometric mean MIC from the seven Acinetobacter baumannii strains used in this study.
(§2) The minimal inhibitory concentration (MIC) is defined as the lowest peptide concentration that inhibited bacterial growth. MICs were measured by a standard microtiter dilution method in Mueller Hinton (MH) medium. Briefly, cells were grown overnight at 37°C in MH broth and were diluted in the same medium. […] The plates were incubated at 37°C for 24h, and the MICs were determined. The MICGM is the geometric mean of the number of MIC values.

[3] = tested on: Acinetobacter baumannii MB9949; details: Mueller-Hinton medium, 37°C, 24 h, inoculum 5 × 10^5 CFU/mL; MIC based on three sets of determinations
Procedure: as §1, §2

[4] = tested on: Acinetobacter baumannii MB9953; details: Mueller-Hinton medium, 37°C, 24 h, inoculum 5 × 10^5 CFU/mL; MIC based on three sets of determinations
Procedure: as §1, §2

[5] = tested on: Acinetobacter baumannii MB9952; details: Mueller-Hinton medium, 37°C, 24 h, inoculum 5 × 10^5 CFU/mL; MIC based on three sets of determinations
Procedure: as §1, §2

[6] = tested on: Acinetobacter baumannii MB9941; details: Mueller-Hinton medium, 37°C, 24 h, inoculum 5 × 10^5 CFU/mL; MIC based on three sets of determinations
Procedure: as §1, §2

[7] = tested on: Acinetobacter baumannii MB9963; details: Mueller-Hinton medium, 37°C, 24 h, inoculum 5 × 10^5 CFU/mL; MIC based on three sets of determinations
Procedure: as §1, §2

[8] = tested on: Acinetobacter baumannii MB9955; details: Mueller-Hinton medium, 37°C, 24 h, inoculum 5 × 10^5 CFU/mL; MIC based on three sets of determinations
Procedure: as §1, §2

human red blood cells [9] = tested on: human red blood cells
Procedure: as §3, §4

SMILES: CC(=O)N[C@H](CCCCN)C(=O)N[C@H](CC(C)C)C(=O)N[C@@H](CCN)C(=O)N[C@H](CO)C(=O)N[C@H](CC(C)C)C(=O)N[C@H](CC(C)C)C(=O)N[C@@H](CCN)C(=O)N[C@@H](C(=O)N[C@H](CC(C)C)C(=O)N[C@H](CO)C(=O)N[C@@H](CCN)C(=O)N[C@H](C)C(=O)N[C@H](CCCCN)C(=O)N[C@H](C)C(=O)N[C@H](C)C(=O)N[C@H](CCCCN)C(=O)N[C@H](CC(C)C)C(=O)N[C@@H](CCN)C(=O)N[C@@H](C(=O)N[C@H](CC(C)C)C(=O)N[C@H](CC(C)C)C(=O)N[C@@H](CCN)C(=O)N[C@H](C)C(=O)N[C@H](CC(C)C)C(=O)N[C@H](CO)C(=O)N[C@H](CO)C(N)=O)[C@H](C)O)[C@H](C)O [D102(Lys^1Ser^26-5 Dab-1)] (Ac-[dK][dL][Dab][dS][dL][dL][Dab][dT][dL][dS][Dab][dA][dK][dA][dA][dK][dL][Dab][dT][dL][dL][Dab][dA][dL][dS][dS]-NH2)
- HC50 (concentration of peptide that results in 50% hemolysis) (human red blood cells [1]): >708 µM
- MIC MB9951 [2]: 0.7 µM (≈ 1.88 µg/mL)
- MIC MB9949 [3]: 0.7 µM (≈ 1.88 µg/mL)
- MIC MB9953 [4]: 1.4 µM (≈ 3.76 µg/mL)
- MIC MB9952 [5]: 0.7 µM (≈ 1.88 µg/mL)
- MIC MB9941 [6]: 0.4 µM (≈ 1.07 µg/mL)
- MIC MB9963 [7]: 0.7 µM (≈ 1.88 µg/mL)
- MIC MB9955 [8]: 0.7 µM (≈ 1.88 µg/mL)

SMILES: CC(=O)N[C@H](CCCCN)C(=O)N[C@H](CC(C)C)C(=O)N[C@H](CCCCN)C(=O)N[C@H](CO)C(=O)N[C@H](CC(C)C)C(=O)N[C@H](CC(C)C)C(=O)N[C@H](CCCCN)C(=O)N[C@@H](C(=O)N[C@H](CC(C)C)C(=O)N[C@H](CO)C(=O)N[C@H](C)C(=O)N[C@H](C)C(=O)N[C@H](CCCCN)C(=O)N[C@H](CCCCN)C(=O)N[C@H](CCCCN)C(=O)N[C@H](CCCCN)C(=O)N[C@H](CC(C)C)C(=O)N[C@H](C)C(=O)N[C@@H](C(=O)N[C@H](CC(C)C)C(=O)N[C@H](CC(C)C)C(=O)N[C@H](CCCCN)C(=O)N[C@H](C)C(=O)N[C@H](CC(C)C)C(=O)N[C@H](CO)C(=O)N[C@H](CO)C(N)=O)[C@H](C)O)[C@H](C)O [D103(Lys^1Ser^26-5 Lys-2)] (Ac-[dK][dL][dK][dS][dL][dL][dK][dT][dL][dS][dA][dA][dK][dK][dK][dK][dL][dA][dT][dL][dL][dK][dA][dL][dS][dS]-NH2)
- HC50 (concentration of peptide that results in 50% hemolysis) (human red blood cells [1]): 134.9 µM
- MIC MB9951 [2]: 0.7 µM (≈ 1.98 µg/mL)
- MIC MB9949 [3]: 0.7 µM (≈ 1.98 µg/mL)
- MIC MB9953 [4]: 0.7 µM (≈ 1.98 µg/mL)
- MIC MB9952 [5]: 0.7 µM (≈ 1.98 µg/mL)
- MIC MB9941 [6]: 0.7 µM (≈ 1.98 µg/mL)
- MIC MB9963 [7]: 0.7 µM (≈ 1.98 µg/mL)
- MIC MB9955 [8]: 0.7 µM (≈ 1.98 µg/mL)

SMILES: CC(=O)N[C@H](CCCCN)C(=O)N[C@H](CC(C)C)C(=O)N[C@@H](CN)C(=O)N[C@H](CO)C(=O)N[C@H](CC(C)C)C(=O)N[C@H](CC(C)C)C(=O)N[C@@H](CN)C(=O)N[C@@H](C(=O)N[C@H](CC(C)C)C(=O)N[C@H](CO)C(=O)N[C@@H](CN)C(=O)N[C@H](C)C(=O)N[C@H](CCCCN)C(=O)N[C@H](C)C(=O)N[C@H](C)C(=O)N[C@H](CCCCN)C(=O)N[C@H](CC(C)C)C(=O)N[C@@H](CN)C(=O)N[C@@H](C(=O)N[C@H](CC(C)C)C(=O)N[C@H](CC(C)C)C(=O)N[C@@H](CN)C(=O)N[C@H](C)C(=O)N[C@H](CC(C)C)C(=O)N[C@H](CO)C(=O)N[C@@H](CN)C(N)=O)[C@H](C)O)[C@H](C)O [D105(Lys^1-6 Dap-1)] (Ac-[dK][dL][Dap][dS][dL][dL][Dap][dT][dL][dS][Dap][dA][dK][dA][dA][dK][dL][Dap][dT][dL][dL][Dap][dA][dL][dS][Dap]-NH2)
- lysis of human red blood cells at 1000 μg/mL (human red blood cells [9]): essentially no lysis
- MIC MB9955 [8]: 0.5 µM (≈ 1.31 µg/mL)

SMILES: CC(=O)N[C@H](CCCCN)C(=O)N[C@H](CC(C)C)C(=O)N[C@@H](CN)C(=O)N[C@H](CO)C(=O)N[C@H](CC(C)C)C(=O)N[C@H](CC(C)C)C(=O)N[C@@H](CN)C(=O)N[C@@H](C(=O)N[C@H](CC(C)C)C(=O)N[C@H](CO)C(=O)N[C@H](C)C(=O)N[C@H](C)C(=O)N[C@H](CCCCN)C(=O)N[C@@H](CN)C(=O)N[C@@H](CN)C(=O)N[C@H](CCCCN)C(=O)N[C@H](CC(C)C)C(=O)N[C@H](C)C(=O)N[C@@H](C(=O)N[C@H](CC(C)C)C(=O)N[C@H](CC(C)C)C(=O)N[C@@H](CN)C(=O)N[C@H](C)C(=O)N[C@H](CC(C)C)C(=O)N[C@H](CO)C(=O)N[C@@H](CN)C(N)=O)[C@H](C)O)[C@H](C)O [D106(Lys^1-6 Dap-2)] (Ac-[dK][dL][Dap][dS][dL][dL][Dap][dT][dL][dS][dA][dA][dK][Dap][Dap][dK][dL][dA][dT][dL][dL][Dap][dA][dL][dS][Dap]-NH2)
- MIC MB9951 [2]: 1.5 µM (≈ 3.92 µg/mL)
- MIC MB9949 [3]: 0.8 µM (≈ 2.09 µg/mL)
- MIC MB9953 [4]: 0.8 µM (≈ 2.09 µg/mL)
- MIC MB9952 [5]: 0.8 µM (≈ 2.09 µg/mL)
- MIC MB9941 [6]: 0.8 µM (≈ 2.09 µg/mL)
- MIC MB9963 [7]: 0.8 µM (≈ 2.09 µg/mL)
- MIC MB9955 [8]: 0.4 µM (≈ 1.05 µg/mL)
